The values below are quoted from earlier work in US20210169839A1, “PEDIATRIC IMMEDIATE-RELEASE FORMULATION OF THE POTASSIUM CHANNEL OPENER EZOGABINE” (Xenon Pharmaceuticals Inc., priority 2019, published 2021).

Data set [1] relates to KCNQ2-DEE.
Data set [2] deals with rodent seizure models. The conditions noted are these: battery of rodent seizure models.
The subject of data set [3] is KCNQ2-DEE. This is another data set of the same source.

Like-named read-outs stand apart in the source and are kept apart here.

With `CCOC(=O)Nc1ccc(NCc2ccc(F)cc2)cc1N` [Ezogabine, 2-amino-4-(4-fluorobenzylamino)-1-ethoxycarbonylaminobenzene], the serious adverse effects result in data set [1] (case report of 11 patients) is on record as “No serious adverse effects were observed”. In addition, the figures for the “improvement in seizures and/or development” value in data set [1] (infants treated before six months of age) and in data set [1] (patients treated later than six months of age) were “three of the four” and “two of the seven”, respectively. Further, the anti-convulsant activity result in data set [2] is listed as “broad spectrum activity”. The “improvements in development or cognition” value in data set [3] (eight children with KCNQ2-DEE) is listed as “all eight patients”. In data set [3] (patients with at least weekly seizures), the “Sustained improvement in seizure frequency” value was “five of the six”.
